Key:
giant foxtail [1] = test: Test A postemergence; type: in vivo, Setaria faberii
In short: (§1)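 Injury scores run from 0, no effect, to 100, complete control, judged by eye against untreated plants roughly 10 days after treatment. Chemicals carried a surfactant in a non-phytotoxic solvent and went onto loam–sand soil preemergence or onto one- to two-leaf seedlings postemergence.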

velvetleaf = test: Test C postemergence; type: in vivo, Abutilon theophrasti
In short: (§2)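 Whole-plant greenhouse test with surfactant-containing solvent formulation, applied preemergence to sown loam–sand pots or postemergence to 2–18 cm plants. Scored by eye 13 to 15 days on, 0–100 scale.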

pigweed [2] = test: Test A preemergence; type: in vivo, Amaranthus retroflexus
In short: as §1

johnsongrass [3] = test: Test C postemergence; type: in vivo, Sorghum halepense
Source text: (§3) Seeds of plant species selected from blackgrass (Alopecurus myosuroides), Italian ryegrass (Lolium multiflorum), wheat, winter (winter wheat, Triticum aestivum), galium (catchweed bedstraw, Galium aparine), corn (Zea mays), large (Lg) crabgrass (Digitaria sanguinalis), giant foxtail (Setaria faberii), johnsongrass (Sorghum halepense), lambsquarters (Chenopodium album), morningglory (Ipomoea coccinea), yellow nutsedge (Cyperus esculentus), pigweed (Amaranthus retroflexus), ragweed (common ragweed, Ambrosia elatior), soybean (Glycine max), barnyardgrass (Echinochloa crus-galli), oilseed rape (Brassica napus), waterhemp (common waterhemp, Amaranthus rudis), kochia (Kochia scoparia), wild oat (Avena fatua), surinam grass (Brachiaria decumbens), foxtail, green (green foxtail, Setaria viridis), goosegrass (Eleusine indica), bromegrass, downy (downy bromegrass, Bromus tectorum), nightshade (eastern black nightshade, Solanum ptycanthum), cocklebur (common cocklebur, Xanthium strumarium), cupgrass, woolly (woolly cupgrass, Eriochloa villosa), bermudagrass (Cynodon dactylon), sunflower, (common oilseed sunflower, Helianthus annuus), Russian thistle (Salsola kali), and velvetleaf (Abutilon theophrasti) were planted into a blend of loam soil and sand and treated preemergence with test chemicals formulated in a non-phytotoxic solvent mixture which included a surfactant.
(§4) At the same time, plants selected from these crop and weed species and also barley, winter (winter barley, Hordeum vulgare), windgrass (Apera spica-venti), chickweed (common chickweed, Stellaria media), deadnettle (henbit deadnettle, Lamium amplexicaule), and canarygrass (littleseed canarygrass, Phalaris minor) were planted in pots containing Redi-Earth® planting medium (Scotts Company, 14111 Scottslawn Road, Marysville, Ohio 43041) comprising spaghnum peat moss, vermiculite, wetting agent and starter nutrients and treated with postemergence applications of test chemicals formulated in the same manner. Plants ranged in height from 2 to 18 cm (1- to 4-leaf stage) for postemergence treatments. Treated plants and controls were maintained in a greenhouse for 13 to 15 days, after which time all species were compared to controls and visually evaluated. Plant response ratings, summarized in Table C, are based on a scale of 0 to 100 where 0 is no effect and 100 is complete control. A dash (-) response means no test result.

corn = test: Test C postemergence; type: in vivo, Zea mays
Source text: as §3, §4

waterhemp = test: Test C postemergence; type: in vivo, Amaranthus rudis; conditions: for Plant response rating, Waterhemp: scale 0 to 100 (0 no effect, 100 complete control)
Source text: as §3, §4

oilseed rape = test: Test C postemergence; type: in vivo, Brassica napus; conditions: for Plant response rating, Oilseed Rape: scale 0 to 100 (0 no effect, 100 complete control)
Source text: as §3, §4

pigweed [4] = test: Test A postemergence; type: in vivo, Amaranthus retroflexus
In short: as §1

large (Lg) crabgrass [5] = test: Test C postemergence; type: in vivo, Digitaria sanguinalis
Source text: as §3, §4

blackgrass = test: Test C preemergence; type: in vivo, Alopecurus myosuroides; conditions: Alopecurus myosuroides, pre-emergence
In short: as §2

large (Lg) crabgrass [6] = test: Test A preemergence; type: in vivo, Digitaria sanguinalis; conditions: Digitaria sanguinalis, pre-emergence, 240 h, read-out: Crabgrass, Large plant response rating
In short: as §1

johnsongrass [7] = test: Test C preemergence; type: in vivo, Sorghum halepense; conditions: Sorghum halepense, pre-emergence
In short: as §2

giant foxtail [8] = test: Test C preemergence; type: in vivo, Setaria faberii; conditions: Setaria faberi, pre-emergence
In short: as §2

ragweed = test: Test C preemergence; type: in vivo, Ambrosia elatior; conditions: Ambrosia artemisiifolia, pre-emergence
In short: as §2

large (Lg) crabgrass [9] = test: Test A postemergence; type: in vivo, Digitaria sanguinalis; conditions: Digitaria sanguinalis, post-emergence, 240 h
In short: as §1

[10] = 31 g ai/ha, 0 to 100 scale, 0 no effect, 100 complete control
[11] = 125 g ai/ha, 0 to 100 scale where 0 is no effect and 100 is complete control
[12] = 16 g ai/ha, postemergence, 0 is no effect, 100 is complete control
[13] = 125 g ai/ha, postemergence, visual rating, scale 0 to 100 (0 no effect, 100 complete control)
[14] = Postemergence, 62 g ai/ha, scale 0 to 100 (0 no effect, 100 complete control)
[15] = 125 g ai/ha, postemergence, visual rating

SMILES: FCc1cccc(Oc2ncc(Br)cn2)c1-n1cc(C(F)(F)F)cn1 [Compound 120]
- Plant response rating, Foxtail, Giant (giant foxtail [1]; [10]): 20
- Plant response rating, Foxtail, Giant (giant foxtail [1]; [11]): 70
- Plant response rating (0 to 100), Velvetleaf (velvetleaf; [12]): 10
- Plant response rating, Velvetleaf (velvetleaf; [13]): 50
- Plant response rating, Velvetleaf (velvetleaf; [14]): 35
- Pigweed plant response rating (0 to 100 scale) (pigweed [2]; 31 g ai/ha): 100
- Plant response rating, Pigweed (pigweed [2]; [11]): 100
- Plant response rating (0 to 100), Johnsongrass (johnsongrass [3]; [12]): 0
- Plant response rating, Johnsongrass (johnsongrass [3]; [13]): 10
- Plant response rating, Johnsongrass (johnsongrass [3]; [14]): 5
- Plant response rating (0 to 100), Corn (corn; [12]): 5
- Plant response rating, Corn (corn; [13]): 10
- Plant response rating, Corn (corn; [14]): 5
- Plant response rating (0 to 100), Waterhemp (waterhemp; [12]): 75
- Plant response rating, Waterhemp (waterhemp; [15]): 85
- Plant response rating, Waterhemp (waterhemp; Postemergence, 62 g ai/ha): 80
- Plant response rating (0 to 100), Oilseed Rape (oilseed rape; [12]): 5
- Plant response rating, Oilseed Rape (oilseed rape; [15]): 15
- Plant response rating, Oilseed Rape (oilseed rape; Postemergence, 62 g ai/ha): 5
- Plant response rating, Pigweed (pigweed [4]; [10]): 60
- Plant response rating (0 to 100), Crabgrass, Large (large (Lg) crabgrass [5]; [12]): 5
- Plant response rating, Crabgrass, Large (large (Lg) crabgrass [5]; [13]): 10
- Plant response rating, Crabgrass, Large (large (Lg) crabgrass [5]; [14]): 10

SMILES: Clc1cnc(Oc2ccccc2-n2cc(Br)cn2)nc1 [Compound 7, 2-[2-(4-bromo-1H-pyrazol-1-yl)phenoxy]-5-chloropyrimidine]
- pest or weed control at 62 g/ha (blackgrass; 62 g ai/ha, preemergence, scale 0 (no effect) to 100 (complete control), read-out: Blackgrass plant response rating): 10%
- pest or weed control at 125 g/ha (blackgrass; 125 g ai/ha, preemergence, scale 0 (no effect) to 100 (complete control), read-out: Blackgrass plant response rating): 50%
- pest or weed control at 250 g/ha (blackgrass; 250 g ai/ha, preemergence, scale 0 (no effect) to 100 (complete control), read-out: Blackgrass plant response rating): 85%
- pest or weed control at 31 g/ha (blackgrass; Preemergence, 31 g ai/ha, scale 0 to 100, 0 no effect, 100 complete control, read-out: Plant response rating, Blackgrass): 5%
- pest or weed control at 125 g/ha (giant foxtail [1]; Setaria faberi, post-emergence, 240 h, 125 g ai/ha, 0 to 100 scale where 0 is no effect and 100 is complete control, read-out: Plant response rating, Foxtail, Giant): 90%
- pest or weed control at 500 g/ha (giant foxtail [1]; Setaria faberi, post-emergence, 240 h, 500 g ai/ha, 0 to 100 scale, 0 no effect, 100 complete control, read-out: Plant response rating Foxtail, Giant): 100%
- pest or weed control at 125 g/ha (large (Lg) crabgrass [6]; [11]): 100%
- pest or weed control at 500 g/ha (large (Lg) crabgrass [6]; 500 g ai/ha, 0 to 100 scale, 0 no effect, 100 complete control, approx. 10 days): 100%
- pest or weed control at 62 g/ha (johnsongrass [7]; 62 g ai/ha, preemergence, scale 0 (no effect) to 100 (complete control), read-out: Johnsongrass plant response rating): 5%
- pest or weed control at 125 g/ha (johnsongrass [7]; 125 g ai/ha, preemergence, scale 0 (no effect) to 100 (complete control), read-out: Johnsongrass plant response rating): 10%
- pest or weed control at 250 g/ha (johnsongrass [7]; 250 g ai/ha, preemergence, scale 0 (no effect) to 100 (complete control), read-out: Johnsongrass plant response rating): 75%
- pest or weed control at 31 g/ha (johnsongrass [7]; Preemergence, 31 g ai/ha, scale 0 to 100, 0 no effect, 100 complete control, read-out: Plant response rating, Johnsongrass): 0%
- pest or weed control at 62 g/ha (giant foxtail [8]; 62 g ai/ha, preemergence, scale 0 (no effect) to 100 (complete control), read-out: Foxtail, Giant plant response rating): 80%
- pest or weed control at 125 g/ha (giant foxtail [8]; 125 g ai/ha, preemergence, scale 0 (no effect) to 100 (complete control), read-out: Foxtail, Giant plant response rating): 98%
- pest or weed control at 250 g/ha (giant foxtail [8]; 250 g ai/ha, preemergence, scale 0 (no effect) to 100 (complete control), read-out: Foxtail, Giant plant response rating): 100%
- pest or weed control at 31 g/ha (giant foxtail [8]; Preemergence, 31 g ai/ha, scale 0 to 100, 0 no effect, 100 complete control, read-out: Plant response rating, Foxtail, Giant): 40%
- pest or weed control at 125 g/ha (velvetleaf; Abutilon theophrasti, post-emergence, 125 g ai/ha, postemergence, read-out: Plant response rating (0 to 100), Velvetleaf): 85%
- pest or weed control at 250 g/ha (velvetleaf; Abutilon theophrasti, post-emergence, 250 g ai/ha, postemergence, read-out: Plant response rating (0 to 100), Velvetleaf): 85%
- pest or weed control at 31 g/ha (velvetleaf; Abutilon theophrasti, post-emergence, Postemergence, 31 g ai/ha, scale 0 to 100 (0 no effect, 100 complete control), 13 to 15 days, read-out: Plant response rating, Velvetleaf): 40%
- pest or weed control at 62 g/ha (velvetleaf; Abutilon theophrasti, post-emergence, Postemergence, 62 g ai/ha, scale 0 to 100 (0 no effect, 100 complete control), read-out: Plant response rating, Velvetleaf): 50%
- pest or weed control at 125 g/ha (pigweed [2]; Amaranthus retroflexus, pre-emergence, 240 h, 125 g ai/ha, 0 to 100 scale where 0 is no effect and 100 is complete control, read-out: Pigweed plant response rating): 90%
- pest or weed control at 500 g/ha (pigweed [2]; Amaranthus retroflexus, pre-emergence, 240 h, 500 g ai/ha, 0 to 100 scale, 0 no effect, 100 complete control, approx. 10 days, read-out: Pigweed plant response rating): 100%
- pest or weed control at 125 g/ha (johnsongrass [3]; Sorghum halepense, post-emergence, 125 g ai/ha, postemergence, read-out: Plant response rating (0 to 100), Johnsongrass): 5%
- pest or weed control at 250 g/ha (johnsongrass [3]; Sorghum halepense, post-emergence, 250 g ai/ha, postemergence, read-out: Plant response rating (0 to 100), Johnsongrass): 10%
- pest or weed control at 31 g/ha (johnsongrass [3]; Sorghum halepense, post-emergence, Postemergence, 31 g ai/ha, scale 0 to 100 (0 no effect, 100 complete control), 13 to 15 days, read-out: Plant response rating, Johnsongrass): 0%
- pest or weed control at 62 g/ha (johnsongrass [3]; Sorghum halepense, post-emergence, Postemergence, 62 g ai/ha, scale 0 to 100 (0 no effect, 100 complete control), read-out: Plant response rating, Johnsongrass): 0%
- plant injury at 125 g/ha (corn; Zea mays, post-emergence, 125 g ai/ha, postemergence, read-out: Plant response rating (0 to 100), Corn): 60%
- plant injury at 250 g/ha (corn; Zea mays, post-emergence, 250 g ai/ha, postemergence, read-out: Plant response rating (0 to 100), Corn): 75%
- Corn plant response rating (crop injury, 0 = no effect, 100 = complete kill) at 62 g/ha (corn; Zea mays, post-emergence, Postemergence, 62 g ai/ha, scale 0 to 100 (0 no effect, 100 complete control)): 25%
- pest or weed control at 62 g/ha (ragweed; 62 g ai/ha, preemergence, scale 0 (no effect) to 100 (complete control), read-out: Ragweed plant response rating): 0%
- pest or weed control at 125 g/ha (ragweed; 125 g ai/ha, preemergence, scale 0 (no effect) to 100 (complete control), read-out: Ragweed plant response rating): 5%
- pest or weed control at 250 g/ha (ragweed; 250 g ai/ha, preemergence, scale 0 (no effect) to 100 (complete control), read-out: Ragweed plant response rating): 40%
- pest or weed control at 31 g/ha (ragweed; Preemergence, 31 g ai/ha, scale 0 to 100, 0 no effect, 100 complete control, read-out: Plant response rating, Ragweed): 0%
- pest or weed control at 125 g/ha (pigweed [4]; Amaranthus retroflexus, post-emergence, 125 g ai/ha, 0 to 100 scale where 0 is no effect and 100 is complete control, read-out: Plant response rating, Pigweed): 100%
- pest or weed control at 500 g/ha (pigweed [4]; Amaranthus retroflexus, post-emergence, 240 h, 500 g ai/ha, 0 to 100 scale, 0 no effect, 100 complete control, read-out: Plant response rating Pigweed): 100%
- pest or weed control at 125 g/ha (large (Lg) crabgrass [5]; Digitaria sanguinalis, post-emergence, 125 g ai/ha, postemergence, read-out: Plant response rating (0 to 100), Crabgrass, Large): 10%
- pest or weed control at 250 g/ha (large (Lg) crabgrass [5]; Digitaria sanguinalis, post-emergence, 250 g ai/ha, postemergence, read-out: Plant response rating (0 to 100), Crabgrass, Large): 20%
- pest or weed control at 31 g/ha (large (Lg) crabgrass [5]; Digitaria sanguinalis, post-emergence, Postemergence, 31 g ai/ha, scale 0 to 100 (0 no effect, 100 complete control), 13 to 15 days, read-out: Plant response rating, Crabgrass, Large): 5%
- pest or weed control at 62 g/ha (large (Lg) crabgrass [5]; Digitaria sanguinalis, post-emergence, Postemergence, 62 g ai/ha, scale 0 to 100 (0 no effect, 100 complete control), read-out: Plant response rating, Crabgrass, Large): 5%
- pest or weed control at 125 g/ha (large (Lg) crabgrass [9]; 125 g ai/ha, 0 to 100 scale where 0 is no effect and 100 is complete control, read-out: Plant response rating, Crabgrass, Large): 80%
- pest or weed control at 500 g/ha (large (Lg) crabgrass [9]; 500 g ai/ha, 0 to 100 scale, 0 no effect, 100 complete control, read-out: Plant response rating Crabgrass, Large): 100%
